From patent US20260207591A1, “CRYSTAL FORM OF FLUORINE-SUBSTITUTED INDAZOLE COMPOUND AND USE THEREOF” (SUNSHINE LAKE PHARMA CO., LTD., priority 2022, published 2026)

What was measured:
[1] = Stability studies, overall conclusion; assay type: physicochemical
Protocol: Example 5 Stability Studies
(§1) Place an appropriate amount of the test sample in a flat weighing bottle, spreading it into a thin layer ≤5 mm thick. Store at 60° C.±2° C. for 30 days. Collect samples at 0, 5, 10, and 30 days for analysis according to the key stability test items. Observe any color changes and determine purity by HPLC.
(§2) Place an appropriate amount of the test sample from one batch in a flat weighing bottle, spreading it into a thin layer ≤5 mm thick. Store at 25° C. and 90%±5% relative humidity (RH) for 30 days. Collect samples at 0, 5, 10, and 30 days for analysis according to the key stability test items. Observe any color changes and determine purity by HPLC.
(§3) Expose the sample to visible light (4500 lx±500 lx) and UV light (energy ≥0.7 W·h/m^2) for 30 days. Collect samples at 0, 5, 10, 15, and 30 days for analysis according to the key stability test items. Observe any color changes and determine purity by HPLC.

[2] = Hygroscopicity test by dynamic vapor sorption (DVS); assay type: physicochemical; conditions: for Weight Gain at 60% RH (%) / Weight Gain at 80% RH (%) / Weight Gain at 95% RH (%): DVS, 25° C.; for resistance to deliquescence: high-humidity conditions
Protocol: The hygroscopicity of the present invention was determined using a DVS INT-Std dynamic vapor and gas sorption analyzer from Surface Measurement Systems Ltd. (UK) with the following parameters: humidity test range: 0%-95%, gas flow: 200 mL/min, temperature: 25° C., test points: one measurement point every 5% humidity increase.
An appropriate amount of the test sample was taken, and its hygroscopicity was measured using a dynamic vapor sorption (DVS) instrument. The classification criteria for hygroscopicity characteristics and moisture absorption weight gain (as per Appendix 9103 “Guidelines for Hygroscopicity Testing of Drugs” from the Chinese Pharmacopoeia 2020 Edition, test conditions: 25° C.±1° C., 80%±2% relative humidity (RH)) are described in Table 2 below: […]

[3] = Light-exposure test (stability study); assay type: physicochemical; conditions: visible 4500 lx±500 lx and UV, 30 days; for Purity (%): HPLC
From the text: as §3

[4] = High-humidity test (stability study); assay type: physicochemical; conditions: for Purity (%): HPLC
Protocol: as §2

[5] = Crystal form conversion in solvents; assay type: physicochemical; conditions: solvents such as ethanol
[6] = Pharmacokinetics test in Beagle dogs, oral capsules; assay type: in vivo; conditions: dog, plasma, male Beagle dogs, 5 mg/kg
Protocol: Male Beagle dogs of 8-12 kg were divided into 3 groups, 3 dogs in each group, and capsules containing test samples were orally administered at a dose of 5 mg/kg, and blood was collected at time points of 0.25, 0.5, 1.0, 2.0, 4.0, 6.0, 8.0 and 24 h. Standard curve was plotted based on concentrations of the samples in a suitable range, the concentration of the test sample in the plasma sample was measured and quantified by AB SCIEX API4000-type LC-MS/MS at MRM mode. Pharmacokinetic parameters were calculated according to drug concentration-time curve using a noncompartmental method by WinNonLin 6.3 software.

Solubility (HPLC) = assay type: physicochemical
Protocol: The solubility of the present invention was determined using an Agilent 1200 High Performance Liquid Chromatograph DAD/VWD detector with an Agilent XDB-C18 model (4.6×50 mm, 5 μm). Detection wavelength of 266 nm, flow rate of 1.0 mL/min, the column temperature of 35° C., mobile phase A: acetonitrile—0.01 M ammonium acetate=10:90 (V:V) analysis methods: acetonitrile-mobile phase A=70:30 (V:V), running time: 10 minutes.

[7] = High-temperature test (stability study); assay type: physicochemical
Protocol: (1) High-Temperature Test:
as §1

[8] = 0 day (start of stability tests)
[9] = High-Humidity, 25° C., 90%±5% RH, 30 days

| SMILES | stability under various storage conditions [1] | Weight Gain at 60% RH (%) [2] [%] | Weight Gain at 80% RH (%) [2] [%] | Weight Gain at 95% RH (%) [2] [%] | resistance to deliquescence [2] | Outward [3] | Purity (%) [3] [%] | Outward [4, 8] | Purity (%) [4, 8] [%] | Outward [4, 9] | Purity (%) [4, 9] [%] | crystal form conversion in solvents [5] | crystal structure stability (polymorphic transition) [1] | AUC(0-t) [6] [ng·h/mL] | Cmax [6] [ng/mL] | Tmax [6] [h] | solubility (in words) (Solubility (HPLC)) | polymorphic transformation under high-temperature conditions [7] |
| --- | --- | --- | --- | --- | --- | --- | --- | --- | --- | --- | --- | --- | --- | --- | --- | --- | --- | --- |
| COC(=O)Nc1c(N)nc(-c2nn(Cc3ccccc3F)c3c(F)cccc23)nc1N [Crystal Form III, methyl (4,6-diamino-2-(7-fluoro-1-(2-fluorobenzyl)-1H-indazol-3-yl)pyrimidin-5-yl)carbamate] | excellent stability | 0.09 | 0.14 | 0.25 | highly resistant to deliquescence | Pale yellow | 99.75 | Pale yellow | 99.76 | Pale yellow | 99.78 | – | – | – | – | – | – | – |
| COC(=O)Nc1c(N)nc(-c2nn(Cc3ccccc3F)c3c(F)cccc23)nc1N [Crystal Form I, methyl (4,6-diamino-2-(7-fluoro-1-(2-fluorobenzyl)-1H-indazol-3-yl)pyrimidin-5-yl)carbamate] | – | – | – | – | – | – | – | – | – | – | – | exhibit crystal form conversion | – | – | – | – | – | – |
| COC(=O)Nc1c(N)nc(-c2nn(Cc3ccccc3F)c3c(F)cccc23)nc1N [Crystal Form XI, methyl (4,6-diamino-2-(7-fluoro-1-(2-fluorobenzyl)-1H-indazol-3-yl)pyrimidin-5-yl)carbamate] | excellent stability | 0.15 | 0.20 | 0.26 | highly resistant to deliquescence | Off-white | 99.75 | Off-white | 99.77 | Off-white | 99.80 | – | less prone to polymorphic transition | 12100 | 1140 | 10 | good solubility | – |
| COC(=O)Nc1c(N)nc(-c2nn(Cc3ccccc3F)c3c(F)cccc23)nc1N [Crystal Form V, methyl (4,6-diamino-2-(7-fluoro-1-(2-fluorobenzyl)-1H-indazol-3-yl)pyrimidin-5-yl)carbamate] | – | – | – | – | – | Pale yellow | 99.36 | Off-white | 99.52 | Off-white | 99.51 | exhibit crystal form conversion | – | – | – | – | – | undergoes polymorphic transformation |
